From ChEMBL document CHEMBL4184204, “Fusarithioamide B, a new benzamide derivative from the endophytic fungus Fusarium chlamydosporium with potent cytotoxic and antimicrobial activities” (Bioorg Med Chem, 2018)
pIC50: −log10 of the molar value. Converted amounts (≈) assume the structure as drawn.

Tests used:
[1] = tested on: Pseudomonas aeruginosa; assay: Antibacterial activity against Pseudomonas aeruginosa AUMC B-73 by microdilution method; assay type: functional
[2] = tested on: Bacillus cereus; assay: Antibacterial activity against Bacillus cereus AUMC B-5 assessed as diameter of inhibition zone after 24 hrs by agar disc diffusion method; assay type: functional
[3] = tested on: HCT-116; assay: Cytotoxicity against human HCT116 cells after 48 hrs by neutral red dye based assay; assay type: functional, cell-based; details: HCT-116, 48 h
[4] = tested on: Candida albicans; assay: Antifungal activity against Candida albicans AUMC 418 assessed as diameter of inhibition zone after 48 hrs by agar disc diffusion method; assay type: functional
[5] = tested on: Bacillus cereus; assay: Antibacterial activity against Bacillus cereus AUMC B-5 by microdilution method; assay type: functional
[6] = tested on: BT-549; assay: Cytotoxicity against human BT549 cells after 48 hrs by neutral red dye based assay; assay type: functional, cell-based; details: BT-549, 48 h
[7] = tested on: Geotrichum candidum; assay: Antifungal activity against Geotrichum candidum AUMC 226 assessed as diameter of inhibition zone after 48 hrs by agar disc diffusion method; assay type: functional
[8] = tested on: Trichophyton rubrum; assay: Antifungal activity against Trichophyton rubrum AUMC 1804 by microdilution method; assay type: functional
[9] = tested on: Staphylococcus aureus; assay: Antibacterial activity against Staphylococcus aureus AUMC B-54 by microdilution method; assay type: functional
[10] = tested on: Candida albicans; assay: Antifungal activity against Candida albicans AUMC 418 by microdilution method; assay type: functional
[11] = tested on: SK-MEL; assay: Cytotoxicity against human SK-MEL cells after 48 hrs by neutral red dye based assay; assay type: functional, cell-based
[12] = tested on: Staphylococcus aureus; assay: Antibacterial activity against Staphylococcus aureus AUMC B-54 assessed as diameter of inhibition zone after 24 hrs by agar disc diffusion method; assay type: functional
[13] = tested on: Escherichia coli; assay: Antibacterial activity against Escherichia coli AUMC B-53 assessed as diameter of inhibition zone after 24 hrs by agar disc diffusion method; assay type: functional
[14] = tested on: SK-OV-3; assay: Cytotoxicity against human SKOV3 cells after 48 hrs by neutral red dye based assay; assay type: functional, cell-based; details: SK-OV-3, 48 h
[15] = tested on: Serratia marcescens; assay: Antibacterial activity against Serratia marcescens AUMC B-55 by microdilution method; assay type: functional
[16] = tested on: KB; assay: Cytotoxicity against human KB cells after 48 hrs by neutral red dye based assay; assay type: functional, cell-based
[17] = tested on: Trichophyton rubrum; assay: Antifungal activity against Trichophyton rubrum AUMC 1804 assessed as diameter of inhibition zone after 48 hrs by agar disc diffusion method; assay type: functional
[18] = tested on: MCF7; assay: Cytotoxicity against human MCF7 cells after 48 hrs by neutral red dye based assay; assay type: functional, cell-based; details: MCF7, 48 h
[19] = tested on: Escherichia coli; assay: Antibacterial activity against Escherichia coli AUMC B-53 by microdilution method; assay type: functional
[20] = tested on: Geotrichum candidum; assay: Antifungal activity against Geotrichum candidum AUMC 226 by microdilution method; assay type: functional
[21] = tested on: Serratia marcescens; assay: Antibacterial activity against Serratia marcescens AUMC B-55 assessed as diameter of inhibition zone after 24 hrs by agar disc diffusion method; assay type: functional
[22] = tested on: Pseudomonas aeruginosa; assay: Antibacterial activity against Pseudomonas aeruginosa AUMC B-73 assessed as diameter of inhibition zone after 24 hrs by agar disc diffusion method; assay type: functional
[23] = tested on: Bacillus cereus; assay: Antibacterial activity against Bacillus cereus AUMC B-5 assessed as diameter of inhibition zone at 10 ug/disc after 24 hrs by agar disc diffusion method; assay type: functional; details: AUMC B-5, 24 h, read-out: DIZ
[24] = tested on: Staphylococcus aureus; assay: Antibacterial activity against Staphylococcus aureus AUMC B-54 assessed as diameter of inhibition zone at 10 ug/disc after 24 hrs by agar disc diffusion method; details: AUMC B-54, 24 h, read-out: DIZ
[25] = tested on: Escherichia coli; assay: Antibacterial activity against Escherichia coli AUMC B-53 assessed as diameter of inhibition zone at 10 ug/disc after 24 hrs by agar disc diffusion method; details: AUMC B-53, 24 h, read-out: DIZ
[26] = tested on: Serratia marcescens; assay: Antibacterial activity against Serratia marcescens AUMC B-55 assessed as diameter of inhibition zone at 10 ug/disc after 24 hrs by agar disc diffusion method; assay type: functional; details: AUMC B-55, 24 h, read-out: DIZ
[27] = tested on: Pseudomonas aeruginosa; assay: Antibacterial activity against Pseudomonas aeruginosa AUMC B-73 assessed as diameter of inhibition zone at 10 ug/disc after 24 hrs by agar disc diffusion method; details: AUMC B-73, 24 h, read-out: DIZ
[28] = tested on: Candida albicans; assay: Antifungal activity against Candida albicans AUMC 418 assessed as diameter of inhibition zone at 5 ug/disc after 48 hrs by agar disc diffusion method; assay type: functional; details: AUMC 418, 48 h, read-out: DIZ
[29] = tested on: Trichophyton rubrum; assay: Antifungal activity against Trichophyton rubrum AUMC 1804 assessed as diameter of inhibition zone at 5 ug/disc after 48 hrs by agar disc diffusion method; assay type: functional; details: AUMC 1804, 48 h, read-out: DIZ
[30] = tested on: Geotrichum candidum; assay: Antifungal activity against Geotrichum candidum AUMC 226 assessed as diameter of inhibition zone at 5 ug/disc after 48 hrs by agar disc diffusion method; assay type: functional; details: AUMC 226, 48 h, read-out: DIZ

MIC [5] [µg/mL]	MIC [8] [µg/mL]	MIC [10] [µg/mL]	MIC [15] [µg/mL]	MIC [20] [µg/mL]	SMILES	pIC50 [3]	pIC50 [6]	pIC50 [11]	pIC50 [14]	pIC50 [16]	also measured
2.5 (≈ 5.35 µM)	5.2 (≈ 11.1 µM)	1.9 (≈ 4.06 µM)	92.1 (≈ 197 µM)	6.9 (≈ 14.8 µM)	CC1NC(=O)C(C)(CC(=O)O)NC(CN)OC(CCS)NC(=O)c2ccccc2NC1=O (stereo not given)	6.23	7.05	4.95	5.91	5.16	MIC [1]: 68.4 µg/mL (≈ 146 µM); diameter of the inhibition zone (DIZ) [2]: 23 mm; diameter of the inhibition zone (DIZ) [4]: 14.5 mm; diameter of the inhibition zone (DIZ) [7]: 28.9 mm; MIC [9]: 3.1 µg/mL (≈ 6.63 µM); diameter of the inhibition zone (DIZ) [12]: 17.4 mm; diameter of the inhibition zone (DIZ) [13]: 25.1 mm; diameter of the inhibition zone (DIZ) [17]: 40.3 mm; pIC50 [18]: 6.68; MIC [19]: 3.7 µg/mL (≈ 7.91 µM); diameter of the inhibition zone (DIZ) [21]: 4.5 mm; diameter of the inhibition zone (DIZ) [22]: 7.2 mm
					COc1cccc2c1C(=O)c1c(O)c3c(c(O)c1C2=O)C[C@@](O)(C(=O)CO)C[C@@H]3O[C@H]1C[C@H](N)[C@H](O)[C@H](C)O1 [DOXORUBICIN]	6.62	7.35	6.80	6.49	7.62	
2.9 (≈ 8.75 µM)			9.1 (≈ 27.5 µM)		O=C(O)c1cn(C2CC2)c2cc(N3CCNCC3)c(F)cc2c1=O [CIPROFLOXACIN]						zone of inhibition at 10 µg/disc [23]: 21.2 mm; zone of inhibition at 10 µg/disc [24]: 15.3 mm; zone of inhibition at 10 µg/disc [25]: 25.6 mm; zone of inhibition at 10 µg/disc [26]: 30.1 mm; zone of inhibition at 10 µg/disc [27]: 14.8 mm
	8.1 (≈ 23.5 µM)	2.8 (≈ 8.12 µM)		4.9 (≈ 14.2 µM)	Clc1ccccc1C(c1ccccc1)(c1ccccc1)n1ccnc1 [CLOTRIMAZOLE]						zone of inhibition at 5 µg/disc [28]: 17.9 mm; zone of inhibition at 5 µg/disc [29]: 15.5 mm; zone of inhibition at 5 µg/disc [30]: 20.1 mm
